The values that follow come from article PMC12471299, “Secondary Metabolites of the Marine Sponge-Derived Fungus Aspergillus subramanianii 1901NT-1.40.2 and Their Antimicrobial and Anticancer Activities” (Marine Drugs, 2025).

What is called viability is the share of living cells, or the viability signal relative to a control. By inhibition is commonly meant the share of the control response that was lost under treatment. A high value points to strong suppression. As a reminder, the IC50 is the concentration at which inhibition is half-maximal. For orientation: MIC50 means the lowest concentration that inhibits either 50% of growth or 50% of the strains tested, depending on the study. A higher MIC50 goes with weaker potency.

Converted amounts (≈) assume the structure as drawn. “And” between values parts separate entries of the source, which are not always exact repeats. Identical values can stand only once. Like-named read-outs stand apart in the source and are kept apart here.

Data set [1] can be described thus: Competitive assay with 4-hydroxytamoxifen (MTT viability). It counts as cell-based. The note with it: human. On the procedure:
Since estrogen-dependent breast cancer MCF-7 cells were proposed to be more sensitive to compound 8, the estrogen receptor (ER) dependence of petromurin C (8) cytotoxicity to estrogen-dependent MCF-7 cells was investigated using 4-hydroxytamoxifen (4-OHT) as an ERs antagonist. MCF-7 cells were pretreated with 4-OHT at a nontoxic concentration of 0.1 µM for 1 h, and 8 at 10 µM was added for 48 h. The antagonist of estrogenic receptors, 4-hydroxytamoxifen (Lumiprobe, Moscow, Russia), was dissolved in DMSO at a concentration of 10 mM and stored with protection from light. The probe was then added to the cells at a final concentration of 1 µM. The investigated compounds were added to the cells after 1 h. Then the viability of MCF-7 cells was measured after 48 h using MTT assay (Section 4.8.3).

Data set [2] deals with MCF-7 cells. The data set can be described thus: MCF-7 cell colony formation (clonogenic) assay. It counts as cell-based. The note with it: Homo sapiens, MCF7, 240 h, 10 d. The procedure: The effect of the compound on colony formation by MCF-7 cells was assessed using a clonogenic assay. The concentration of MCF-7 cells was 0.33 × 10^3/mL. The cells were incubated for 10 d, fixed with methanol (25 min), stained with 0.5% crystal violet solution (25 min), and washed with PBS. The grown colonies were counted using a BIO-PRINT-Cx4 Edge-Fixed Pad-Container (Vilber, Collegien, France). The results are presented as colony inhibition compared to that of the control.

Data set [3] concerns MCF-7 cells. The data set can be described thus: Cell cycle investigation (propidium iodide, flow cytometry). It counts as cell-based, human. On the procedure: After incubation, the cells were trypsinized, harvested, washed with PBS, and fixed with ice-cold 70% ethanol in a dropwise manner prior to storage at −20 °C overnight. The cells were then washed with PBS, incubated with 200 μg/mL RNAse (PanReac, AppliChem, Darmstadt, Germany) and 20 μg/mL of propidium iodide (Sigma-Aldrich, St. Louis, MO, USA) for 30 min at 37 °C, and DNA content was analyzed using a NovoCyte flow cytometer (Agilent, Austin, TX, USA). The proportion of cells in each cell cycle phase was expressed as a percentage.
(In flow cytometry, cells or beads pass a laser one at a time.)

Data set [4] has as its system MCF-7 spheroids. The data set can be described thus: Three-dimensional culture of MCF-7 cells, spheroid area. It counts as cell-based, human. On the procedure: The anticancer effect of petromurin C (8) was investigated using a 3D culture of MCF-7 cells (Figure 12). MCF-7 spheroids were formed in agarose microwells using MSLA-printed stamps. Compound 8 (10 µM and 20 µM) was added 24 h after the cells were seeded.
MCF-7 cell spheroids were formed in agarose microwells as described previously. Briefly, agarose (2.8%) heated to 60 °C was added to each well of a 96-well plate, and MSLA-printed stamps with microcylinders were inserted and then removed after agarose solidification. Each well contained 34 microwells with a diameter of 300 μm. MCF-7 cells at a concentration of 2 × 10^4 cells/well were added to each well and gently centrifuged to precipitate the cells that had gathered in the microwells. Petromurin C (8) was added after 24 h, and observations were performed daily using an MIB-2-FL fluorescence microscope (Lomo Microsystems, St. Petersburg, Russia) The spheroid area was calculated using CellProfiler software v. 4.2.8 [51, 52]. In total, at least 20 of the same spheroids in each variant were analyzed daily and data were calculated as mean ± SEM.

Data set [5] deals with E. faecalis ATCC 29212. The arrangement: method as in PMID 29642369. The note with it: cited from earlier work.
Data set [6] deals with HT29 cells. More on the design: method as in PMID 29642369. The note with it: cited from earlier work.
For data set [7], the system named is malignant glioma U251 cells. The arrangement: method as in PMID 29642369. The note with it: cited from earlier work.
The test system of data set [8] is Escherichia coli VKPM (B-7935). The data set can be described thus: Antimicrobial assay, growth inhibition (optical density). It counts as cell-based. The note with it: E. coli, 18 h. The method in brief: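 Cultures grown 24 h at 37 °C on Mueller Hinton agar; compound applied at concentrations of 100 µM and below. After 18 h, growth read at OD620 and biofilm via MTT at OD570; results expressed as percent of 1% DMSO/PBS control and given as MIC50.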

In data set [9] the test system is vancomycin-resistant enterococci strains. The arrangement: method as in PMID 29642369. The note with it: cited from earlier work.
The subject of data set [10] is HepG2 cells. The arrangement: method as in PMID 29642369. The note with it: HepG2, at 100 µM; cited from earlier work.
For data set [11], the system named is HCT116 cells. More on the design: method as in PMID 29642369. The note with it: HCT116, at 100 µM; cited from earlier work.
Data set [12] has as its system A549 cells. The arrangement: method as in PMID 29642369. The note with it: A549, at 100 µM; cited from earlier work.
Data set [13] relates to A375 cells. More on the design: method as in PMID 29642369. The note with it: A375, at 100 µM; cited from earlier work.

Take `COc1c(OC)c(-c2c[nH]c3ccc(O)cc23)c(OC)c(OC)c1-c1c[nH]c2ccccc12` [Compound 8, petromurin C]: the viability at 48 h, 10 µM amounted to 84.4 ± 1.1% in data set [1] (MCF-7 cells pretreated with 4-hydroxytamoxifen, 4-OHT 0.1 µM for 1 h, then 8 at 10 µM, read-out: viability of 4-OHT-pretreated MCF-7 cells) and 76.1 ± 1.6% in data set [1] (MCF-7 cells, 8 at 10 µM, no 4-OHT, read-out: viability of MCF-7 cells). This molecule returned an inhibition at 5 µM in data set [2] (5 µM) of 16.8%. For the same molecule, in [2] (10 µM), 10 µM produced 20.4% inhibition. For the same molecule, the “Cell Disturbance, G1 Phase” value in data set [3] (1 h, 5 µM) is 22.69 ± 0.42%; in data set [3] (1 h, 10 µM), 21.37 ± 2.18%; in [3] (3 h, 5 µM), 26.2% and 26.20 ± 1.17 %; in [3] (3 h, 10 µM), 33.82 ± 0.98%. Further, the “Cell Disturbance, G2/M Phase” value in [3] (1 h, 5 µM) was 29.91 ± 1.95%; in [3] (1 h, 10 µM), 25.9% and 25.96 ± 0.62 %; in data set [3] (3 h, 5 µM) it was 17.2% and 17.20 ± 1.23 %; in data set [3] (3 h, 10 µM) it was 14.9% and 14.95 ± 1.08 %. For the same molecule, the “Cell Disturbance, S Phase” value in data set [3] (1 h, 5 µM) was 45.52 ± 1.05%; in [3] (1 h, 10 µM) it was 53.1% and 53.15 ± 1.53 %; in [3] (3 h, 5 µM), 56.6% and 56.60 ± 1.25 %; in data set [3] (3 h, 10 µM) it was 51.8% and 51.79 ± 0.86 %. In addition, the “decrease of spheroid area” value in [4] (10 µM, after 24 h) worked out at 19.1%; in [4] (10 µM, after 72 h), 28.9%; in data set [4] (20 µM, after 24 h), 29.8%; in [4] (20 µM, after 72 h), 32.6%. For the same molecule, in [4] (abstract, concentration and time not stated), the “decrease of the area of MCF-7 3D spheroids” value is given as “approximately 30%”. Also, the “antibacterial activity” value in data set [5] is on record as “did not inhibit the growth”. The IC50 in data set [6] (read-out: IC50, cell viability) was 34.8 µM. Also, the “effectiveness” value in [7] (U251 cells) was “not effective”.
Regarding `COC1=C(c2c[nH]c3ccccc23)C(=O)C(CC=C(C)C)=C(c2c[nH]c3ccccc23)C1=O` [Compound 6, kumbicin D], the “Growth inhibition, MIC50” value in data set [8] was 11.42 ± 1.02 µM. This molecule came in with an MIC50 in data set [8] (Escherichia coli) of 7 to 11 µM (≈ 3.06 to 4.8 µg/mL). The “antibacterial activity” value in data set [5] and in data set [9] was “not active” each time. Besides, the “effect on cells” value in data set [10] was “weak effects”; in data set [6] (HT29, at 100 µM), “weak effects”; in data set [11] it was “weak effects”; in data set [12] it was “weak effects”; in data set [13] it was “weak effects”; in data set [7] (U251, at 100 µM), “weak effects”.
